Consider one compound from EP3632468B1, “5-IODO-4-THIO-2'-DEOXYURIDINE FOR USE AS A RADIOSENSITIZER IN RADIOTHERAPY” (Uniwersytet Gdanski, priority 2018, dated 2020).

Assay type in all cases: cell-based
Data set [1] has as its system human dermal fibroblasts - HDFa line. Kind of data set: MTT cytotoxicity assay, HDFa. The note with it: ISdU 10^-8 to 10^-4 M, 24 h and 48 h incubation, no irradiation. The procedure:
(§1) Cytotoxic activity was determined using the MTT assay after incubation of MCF-7 (CLS, Eppelheim) or HDFa (Gibco Invitrogen) cells with ISdU. The MCF-7 cells were grown in RPMI supplemented with 10% FBS and antibiotics (streptomycin and penicillin) at a concentration of 100 U·mL^-1. The HDFa cells were grown in DMEM supplemented with 10% FBS and antibiotics (streptomycin and penicillin) at the same concentration. Cells at a density of 4·10^3 per well were seeded into a 96-well plate and incubated (37°C, 5% CO2) for 24 h. Then, the medium was freshly changed, and the cells were treated with ISdU at concentrations of 0 (control), 10^-4, 5·10^-5, 10^-5, 10^-6, 10^-7 and 10^-8 M. Cells were incubated with ISdU for 24 h and 48 h. After this time, the aqueous MTT salt solution at a concentration of 4 mg·mL^-1 was added to each well. After 4 h of incubation, the medium was removed and 200 µL of dimethylsulfoxide (DMSO) was added to dissolve the formazan crystals. The absorbance was measured at 570 nm (with 660 nm taken as the reference) on an EnSpire microplate reader (PerkinElmer). […] The results were analyzed with the use of GraphPad Prism software. The statistical evaluation of treated samples and untreated controls was calculated using one-way analysis of variance (ANOVA) followed by […] multiple comparison test. […]

Data set [2] concerns MCF-7 cells (human breast cancer cells). Kind of data set: Cytometric analysis of phosphorylation of histone H2A.X (double strand break marker). The settings on record: 10^-4 M ISdU 48 h. Here is the method:
One of the damages caused by ISdU are double strand break of DNA, whose molecular marker is phosphorylation of histone H2A.X. To confirm the application of the compound in radiotherapy, the cytometric analysis of phosphorylation of histone H2A.X, molecular marker of double strand break of DNA was carried out.
The MCF-7 cells (human breast cancer cells) were grown up in RPMI medium supplemented with 10 % FBS (fetal bovine serum) and antibiotics (penicillin and streptomycin) at a concertation of 100 U · ml^-1. The cells were treated with ISdU at the concentration of 10^-4 M and incubated (37°C, 5% CO2) for 48 h. Upon this time, plate cultures were X-ray irradiated with doses of 1 Gy and 2 Gy, using of e.g. Cellrad X-ray cabinet, Faxitron X-ray Corporation, and incubated for 1 h in the same condition. Next, the cells were detached with solution of Accutase (Life Technologies, UK), fixed and permeabilized (fixation and permeabilization was performed by the manufacturer's protocol FlowCellect™ Histone H2A.X Phosphorylation Assay Kit, Merck). Prepared cells were analyzed by cytometric using of e.g. Guava easyCyte™, Merck. The experiment was performed in triplicated. The non-treated cells were a control.

The test system of data set [3] is human breast cancer cells - MCF-7 line. Kind of data set: MTT cytotoxicity assay, MCF-7. The settings on record: MCF7, light or radiation study, 100 µM ISdU, 48 h incubation, no irradiation, read-out: MCF-7 cells viability compared to the control. Here is the method:
as §1
On the technique in general: Tetrazolium dyes change colour on reduction, which living cells bring about.

With `O=c1[nH]c(=S)c(I)cn1[C@H]1C[C@H](O)[C@@H](CO)O1` [ISdU, 5-iodo-4-thio-2'-deoxyuridine], the HDFa cell viability result in data set [1] was “a statistically significant decrease in cell viability was not observed”. Further, the γH2A.X positive cells in data set [2] (1 Gy X-ray, measured 1 h after irradiation (control 26.56 ± 1.14%)) is 35.15 ± 1.48%; in data set [2] (2 Gy X-ray, measured 1 h after irradiation (control 49.38 ± 3.8%)) it was 60.25 ± 2.98%. For the same compound, the viability at 100 µM in data set [3] came to 91 ± 3%.

A word on the viability: it is a read-out of living cells in per cent, often relative to untreated cells.
